The text below walks through data of patent publication US9981976B2, “Piperidine substituted pyrazolo[1,5-A]pyrimidine derivatives with inhibitory activity on the replication of the respiratory syncytial virus (RSV)” (priority 2014, dated 2018).

Bounds are passed on as bounds.

Broadly, the melting point is the temperature of the solid-liquid transition.

For series [1], the system named is rgRSV224 virus. Put plainly: microbe, parasite or virus in culture. The format is cell-based, respiratory syncytial virus (RSV). The following applies: for EC50: human respiratory syncytial virus, HeLa, 72 h, read-out: RSV HELA pEC50, rgRSV224 virus (MOI=1), HeLa cells, GFP expression three days post-virus exposure (converted); for RSV HELA pEC50: rgRSV224 virus (MOI=1), HeLa cells, GFP expression three days post-virus exposure.

Series [2] concerns HeLa cells. In words: Cytotoxicity in HeLa cells, ATP content (ATPlite kit). The conditions noted are these: three days incubation, CC50 = 50% concentration for cytotoxicity. On the technique in general: In ATP-based viability assays light output follows the ATP content of the culture.
Procedure: Black 384-well clear-bottom microtiter plates (Corning, Amsterdam, The Netherlands) were filled via acoustic drop ejection using the echo liquid handler (Labcyte, Sunnyvale, Calif.). 200 nL of compound stock solutions (100% DMSO) were transferred to the assay plates. 9 serial 4-fold dilutions of compound were made, creating per quadrant the same compound concentration. The assay was initiated by adding 10 μL of culture medium to each well (RPMI medium without phenol red, 10% FBS-heat inactivated, 0.04% gentamycin (50 mg/mL). All addition steps are done by using a multidrop dispenser (Thermo Scientific, Erembodegem, Belgium). Next, rgRSV224 virus (MOI=1) diluted in culture medium was added to the plates. rgRSV224 virus is an engineered virus that includes an additional GFP gene (Hallak L K, Spillmann D, Collins P L, Peeples M E. Glycosaminoglycan sulfation requirements for respiratory syncytial virus infection; Journal of virology (2000), 74(22), 10508-13) and was in-licensed from the NIH (Bethesda, Md., USA). Finally, 20 μL of a HeLa cell suspension (3,000 cells/well) were plated. Medium, virus- and mock-infected controls were included in each test. The wells contain 0.05% DMSO per volume. Cells were incubated at 37° C. in a 5% CO2 atmosphere. Three days post-virus exposure, viral replication was quantified by measuring GFP expression in the cells by an in house developed MSM laser microscope (Tibotec, Beerse, Belgium). The EC50 was defined as the 50% inhibitory concentration for GFP expression. In parallel, compounds were incubated for three days in a set of white 384-well microtiter plates (Corning) and the cytotoxicity of compounds in HeLa cells was determined by measuring the ATP content of the cells using the ATPlite kit (Perkin Elmer, Zaventem, Belgium) according to the manufacturer's instructions. The CC50 was defined as the 50% concentration for cytotoxicity.

In turn, `Cc1ccc2ncnc(N3CCCCC3c3cc4nc(N5CCC5)cc(C)n4n3)c2c1` (stereo not shown) [P21, 4-(2-(5-(azetidin-1-yl)-7-methylpyrazolo[1,5-a]pyrimidin-2-yl)-piperidin-1-yl)-6-methylquinazoline] displayed a melting point of 192.43 °C. Besides, the EC50 in series [1] was 398 nM. In addition, in series [2], the “SI TOX HELA” value is listed as less than 4.6.
The like results for `Cc1ccc2ncnc(N3CCCCC3c3cc4nc(N5CCC5)c(C)cn4n3)c2c1` (stereo not shown) [P11, 4-(2-(5-(azetidin-1-yl)-6-methylpyrazolo[1,5-a]pyrimidin-2-yl)-piperidin-1-yl)-6-methylquinazoline] were, in that order, 205.49 °C, 126 nM and less than 4.6.
For `COC(=O)N(C(=O)OC)c1nc(N2CCCCC2c2cc3nc(N4CCC4)cc(N4CCOCC4)n3n2)c2c(C)cccc2n1` (stereo not shown) [P28, dimethyl (4-{2-[5-(azetidin-1-yl)-7-(morpholin-4-yl)pyrazolo[1,5-a]-pyrimidin-2-yl]piperidin-1-yl}-5-methylquinazolin-2-yl)imidodicarbonate], in that order: 136.62 °C, 794 nM and less than 4.
With `Cc1c(C2CC2)nc2cc(C3CCCCN3c3ncnc4cccc(C)c34)nn2c1N1CCOCC1` (stereo not shown) [P47, 4-(5-cyclopropyl-6-methyl-2-(1-(5-methylquinazolin-4-yl)piperidin-2-yl)pyrazolo[1,5-a]pyrimidin-7-yl)morpholine], the EC50 in series [1] was 501 nM. In series [2], the “SI TOX HELA” value is 4.6.
For `Cc1ccc2nc(C)nc(N3CCCCC3c3cc4nc(N5CC(O)C5)c(C)cn4n3)c2c1` (stereo not shown) [P42, 1-(2-(1-(2,6-dimethylquinazolin-4-yl)piperidin-2-yl)-6-methyl-pyrazolo[1,5-a]pyrimidin-5-yl)azetidin-3-ol], in that order: 2510 nM and less than 4.6.
For `Clc1ccc2ncnc(N3CCCC[C@@H]3c3cc4nc(N5CCC5)cc(N5CCOCC5)n4n3)c2c1` [P3, (R)-4-(5-(azetidin-1-yl)-2-(1-(6-chloroquinazolin-4-yl)piperidin-2-yl)pyrazolo[1,5-a]pyrimidin-7-yl)morpholine], in that order: 3980 nM and 4.6.
Regarding `Cc1ccc2ncnc(N3CCCCC3c3cc4nc(N5CC(N)C5)c(C)cn4n3)c2c1` (stereo not shown) [P13, 1-(6-methyl-2-(1-(6-methylquinazolin-4-yl)piperidin-2-yl)pyrazolo-[1,5-a]pyrimidin-5-yl)azetidin-3-amine], in series [1], the EC50 was 398 nM. Moreover, the “SI TOX HELA” value in series [2] came to 4.3.
On to `CNC(=O)c1nc(N2CCCCC2c2cc3nc(N4CCC4)cc(N4CCOCC4)n3n2)c2c(C)cccc2n1` (stereo not shown) [P70, 4-(2-(5-(azetidin-1-yl)-7-morpholinopyrazolo[1,5-a]pyrimidin-2-yl)-piperidin-1-yl)-N,5-dimethylquinazoline-2-carboxamide], for which the EC50 in series [1] is 631 nM. Moreover, in series [2], the “SI TOX HELA” value came to 4.3.
The like results for `Cc1cccc2ncnc(N3CCCCC3c3cc4nc(N5CCC5)cc(N5CCN(C(=O)NC(C)C)CC5)n4n3)c12` (stereo not shown) [P54, 4-(5-(azetidin-1-yl)-2-(1-(5-methylquinazolin-4-yl)piperidin-2-yl)-pyrazolo[1,5-a]pyrimidin-7-yl)-N-isopropylpiperazine-1-carboxamide] were, in that order, 25.1 nM and 4.5.
The like results for `Cc1cccc2nc(C(N)=O)nc(N3CCCCC3c3cc4nc(N5CCC5)cc(N5CCOCC5)n4n3)c12` (stereo not shown) [P46, 4-(2-(5-(azetidin-1-yl)-7-morpholinopyrazolo[1,5-a]pyrimidin-2-yl)-piperidin-1-yl)-5-methylquinazoline-2-carboxamide] were, in that order, 316 nM and 4.3.
For the compound `Cc1cccc2ncnc(N3CCCC[C@H]3c3cc4nc(N5CCC5)cc(N5CCOCC5)n4n3)c12` [P19, (S)-4-(5-(azetidin-1-yl)-2-(1-(5-methylquinazolin-4-yl)piperidin-2-yl)pyrazolo[1,5-a]pyrimidin-7-yl)morpholine], the EC50 in series [1] is 10 nM. In addition, in series [2], the “SI TOX HELA” value is recorded as less than 4.3.
As for `CN(C)S(=O)(=O)NC(=O)c1nc(N2CCCCC2c2cc3nc(N4CCC4)cc(N4CCOCC4)n3n2)c2ccccc2n1` (stereo not shown) [P36, 4-(2-(5-(azetidin-1-yl)-7-morpholinopyrazolo[1,5-a]pyrimidin-2-yl)-piperidin-1-yl)-N—(N,N-dimethylsulfamoyl)quinazoline-2-carboxamide], the EC50 in series [1] was 501 nM. In addition, in series [2], the “SI TOX HELA” value is less than 4.
The like results for `CCOc1nc(N2CCCCC2c2cc3nc(N4CCC4)cc(N4CCOCC4)n3n2)c2cccnc2n1` (stereo not shown) [P16, 4-(5-(azetidin-1-yl)-2-(1-(2-ethoxypyrido[2,3-d]pyrimidin-4-yl)-piperidin-2-yl)pyrazolo[1,5-a]pyrimidin-7-yl)morpholine] were, in that order, 79.4 nM and 4.3.
Turning to `Cc1ccc2ncnc(N3CCCCC3c3cc4nc(N5CCC(N)C5)ccn4n3)c2c1` (stereo in doubt) [P49, (3S)-1-(2-(1-(6-methylquinazolin-4-yl)piperidin-2-yl)pyrazolo[1,5-a]pyrimidin-5-yl)pyrrolidin-3-amine], the EC50 in series [1] was 794 nM. For the same compound, the “SI TOX HELA” value in series [2] turned out to be 4.3.
The like results for `CCOc1nc(N2CCCCC2c2cc3nc(N4CCC4)cc(N4CCOCC4)n3n2)c2c(C)cccc2n1` (stereo not shown) [P31, 4-(5-(azetidin-1-yl)-2-(1-(2-ethoxy-5-methylquinazolin-4-yl)piperidin-2-yl)pyrazolo[1,5-a]pyrimidin-7-yl)morpholine] were, in that order, 158 nM and 4.8.
In the case of `Cc1cccc2nc(C(=N)NO)nc(N3CCCCC3c3cc4nc(N5CCC5)cc(N5CCOCC5)n4n3)c12` (stereo not shown) [P30, 4-(2-(5-(azetidin-1-yl)-7-morpholinopyrazolo[1,5-a]pyrimidin-2-yl)-piperidin-1-yl)-N-hydroxy-5-methylquinazoline-2-carboximidamide], in series [1], the EC50 was 631 nM. For the same compound, the “SI TOX HELA” value in series [2] was determined as 4.6.
With `CS(=O)(=O)Nc1nc(N2CCCC[C@H]2c2cc3nc(N4CCC4)cc(N4CCOCC4)n3n2)c2cc(Cl)ccc2n1` (stereo in doubt) [P32, N-(4-(2-(5-(azetidin-1-yl)-7-morpholinopyrazolo[1,5-a]pyrimidin-2-yl)piperidin-1-yl)-6-chloroquinazolin-2-yl)methanesulfonamide], the “RSV HELA pEC50” value in series [1] is recorded as 7.3. For the same compound, in series [2], the “SI TOX HELA” value is less than 4.
Take `Cc1nc(N2CCCCC2c2cc3nc(N4CCC4)cc(N4CCOCC4)n3n2)c2cc[nH]c2n1` (stereo not shown) [P15, 4-(5-(azetidin-1-yl)-2-(1-(2-methyl-7H-pyrrolo[2,3-d]pyrimidin-4-yl)-piperidin-2-yl)pyrazolo[1,5-a]pyrimidin-7-yl)morpholine]: the EC50 in series [1] was 251 nM. The “SI TOX HELA” value in series [2] is listed as 4.0.
`Cc1cccc2nc(O)nc(N3CCCCC3c3cc4nc(N5CCC5)cc(N5CCOCC5)n4n3)c12` (stereo not shown) [P45, 4-(2-(5-(azetidin-1-yl)-7-morpholinopyrazolo[1,5-a]pyrimidin-2-yl)-piperidin-1-yl)-5-methylquinazolin-2-ol]: the EC50 in series [1] is 200 nM. Also, the “SI TOX HELA” value in series [2] was 4.2.
For `COC(=O)c1nc(N2CCCCC2c2cc3nc(N4CCC4)cc(N4CCOCC4)n3n2)c2c(C)cccc2n1` (stereo not shown) [P67, methyl 4-(2-(5-(azetidin-1-yl)-7-morpholinopyrazolo[1,5-a]pyrimidin-2-yl)piperidin-1-yl)-5-methylquinazoline-2-carboxylate], in that order: 126 nM and less than 4.3.
With `Cc1ccc2nc(C)nc(N3CCCC[C@H]3c3cc4nc(N5CC(O)C5)c(C)cn4n3)c2c1` [P43, (S)-1-(2-(1-(2,6-dimethylquinazolin-4-yl)piperidin-2-yl)-6-methyl-pyrazolo[1,5-a]pyrimidin-5-yl)azetidin-3-ol], in series [1], the EC50 was 15800 nM. Moreover, the “SI TOX HELA” value in series [2] is 4.2.
The like results for `Fc1cccc2ncnc(N3CCCCC3c3cc4nc(N5CCC5)cc(N5CCOCC5)n4n3)c12` (stereo not shown) [P60, 4-(5-(azetidin-1-yl)-2-(1-(5-fluoroquinazolin-4-yl)piperidin-2-yl)-pyrazolo[1,5-a]pyrimidin-7-yl)morpholine] were, in that order, 126 nM and 4.3.
For `Cc1cn2nc([C@H]3CCCCN3c3ncnc4cccc(C)c34)cc2nc1N1CC(O)C1` [P24, (R)-1-(6-methyl-2-(1-(5-methylquinazolin-4-yl)piperidin-2-yl)pyrazolo[1,5-a]-pyrimidin-5-yl)azetidin-3-ol], in that order: more than 25100 nM and less than 4.6.
Turning to `CS(=O)(=O)Nc1nc(N2CCCC[C@H]2c2cc3nc(N4CCC4)cc(N4CCOCC4)n3n2)c2cc(Cl)ccc2n1` [P33, (S)—N-(4-(2-(5-(azetidin-1-yl)-7-morpholinopyrazolo[1,5-a]-pyrimidin-2-yl)piperidin-1-yl)-6-chloroquinazolin-2-yl)methanesulfonamide], the “RSV HELA pEC50” value in series [1] stood at 7.88. The “SI TOX HELA” value in series [2] is on record as 4.2.
For the compound `CSc1nc(N2CCCCC2c2cc3nc(N4CCC4)cc(N4CCOCC4)n3n2)c2cc(C)ccc2n1` (stereo not shown) [P57, 4-(5-(azetidin-1-yl)-2-(1-(6-methyl-2-(methylthio)quinazolin-4-yl)-piperidin-2-yl)pyrazolo[1,5-a]pyrimidin-7-yl)morpholine], the EC50 in series [1] was 631 nM. In addition, in series [2], the “SI TOX HELA” value is recorded as 4.5.
For `Cc1cccc2nc(C(=O)O)nc(N3CCCCC3c3cc4nc(N5CCC5)cc(N5CCOCC5)n4n3)c12` (stereo not shown) [P68, 4-(2-(5-(azetidin-1-yl)-7-morpholinopyrazolo[1,5-a]pyrimidin-2-yl)-piperidin-1-yl)-5-methylquinazoline-2-carboxylic acid], the EC50 in series [1] was 316 nM. Besides, the “SI TOX HELA” value in series [2] is less than 4.6.
